# From patent US11739078B2, “Methods of inhibiting kinases” (INSILICO MEDICINE IP LIMITED, priority 2019, dated 2023)
# pIC50: −log10 of the molar value.
# Tests used:
# [1] = system: collagen type 1 alpha 1 (COL1A1) mRNA expression; assay: Collagen production assay (COL1A1 mRNA expression); assay type: cell-based
# Procedure: HDF/TERT166 working lot cells can be thawed from liquid nitrogen and expanded using standard conditions (Medium: DMEM/Ham's F12 basal medium supplemented with 1× GlutaMax-I and 10% FBS without antibiotics; 37° C. 5% CO2). For performing the treatment, cells can be seeded at a cell density of 7500 cells/cm^2 in 12-well plates the day before the first treatment. Cells can be seeded in starvation medium (DMEM/Ham's F12 basal medium supplemented with 1× GlutaMax-I and 0.5% FBS without antibiotics). Approximately 24 hours after seeding the substances can be dissolved in DMSO (stocks: 10 mM) and diluted in starvation medium to a final concentration of 10 μM. Half of this working dilution can be supplemented with 100 pg/mL TGFbeta. For each substance, two wells can be treated with a 10 μM concentration of the substance and a 10 μM concentration supplemented with 100 pg/mL TGF-beta. In parallel, cells can be treated with 100 pg/mL TGF-beta alone. Cells in starvation medium can serve as a control. For all cells treatment can be done by performing a medium exchange. […]
# RNA extraction can be performed with 200 μL Chloroform, and phase separation can be achieved by centrifugation for 15 min at 12,000 g at 4° C. […] RNA concentration can be determined spectrophotometrically with a Nanodrop instrument. […]
# TNIK = TNIK (Homo sapiens (Human), UniProt Q9UKE5); assay: TNIK enzymatic assay (radiometric kinase inhibition); assay type: biochemical; details: read-out: TNIK_IC50
# TNIK, sequence (Q9UKE5 whole entry): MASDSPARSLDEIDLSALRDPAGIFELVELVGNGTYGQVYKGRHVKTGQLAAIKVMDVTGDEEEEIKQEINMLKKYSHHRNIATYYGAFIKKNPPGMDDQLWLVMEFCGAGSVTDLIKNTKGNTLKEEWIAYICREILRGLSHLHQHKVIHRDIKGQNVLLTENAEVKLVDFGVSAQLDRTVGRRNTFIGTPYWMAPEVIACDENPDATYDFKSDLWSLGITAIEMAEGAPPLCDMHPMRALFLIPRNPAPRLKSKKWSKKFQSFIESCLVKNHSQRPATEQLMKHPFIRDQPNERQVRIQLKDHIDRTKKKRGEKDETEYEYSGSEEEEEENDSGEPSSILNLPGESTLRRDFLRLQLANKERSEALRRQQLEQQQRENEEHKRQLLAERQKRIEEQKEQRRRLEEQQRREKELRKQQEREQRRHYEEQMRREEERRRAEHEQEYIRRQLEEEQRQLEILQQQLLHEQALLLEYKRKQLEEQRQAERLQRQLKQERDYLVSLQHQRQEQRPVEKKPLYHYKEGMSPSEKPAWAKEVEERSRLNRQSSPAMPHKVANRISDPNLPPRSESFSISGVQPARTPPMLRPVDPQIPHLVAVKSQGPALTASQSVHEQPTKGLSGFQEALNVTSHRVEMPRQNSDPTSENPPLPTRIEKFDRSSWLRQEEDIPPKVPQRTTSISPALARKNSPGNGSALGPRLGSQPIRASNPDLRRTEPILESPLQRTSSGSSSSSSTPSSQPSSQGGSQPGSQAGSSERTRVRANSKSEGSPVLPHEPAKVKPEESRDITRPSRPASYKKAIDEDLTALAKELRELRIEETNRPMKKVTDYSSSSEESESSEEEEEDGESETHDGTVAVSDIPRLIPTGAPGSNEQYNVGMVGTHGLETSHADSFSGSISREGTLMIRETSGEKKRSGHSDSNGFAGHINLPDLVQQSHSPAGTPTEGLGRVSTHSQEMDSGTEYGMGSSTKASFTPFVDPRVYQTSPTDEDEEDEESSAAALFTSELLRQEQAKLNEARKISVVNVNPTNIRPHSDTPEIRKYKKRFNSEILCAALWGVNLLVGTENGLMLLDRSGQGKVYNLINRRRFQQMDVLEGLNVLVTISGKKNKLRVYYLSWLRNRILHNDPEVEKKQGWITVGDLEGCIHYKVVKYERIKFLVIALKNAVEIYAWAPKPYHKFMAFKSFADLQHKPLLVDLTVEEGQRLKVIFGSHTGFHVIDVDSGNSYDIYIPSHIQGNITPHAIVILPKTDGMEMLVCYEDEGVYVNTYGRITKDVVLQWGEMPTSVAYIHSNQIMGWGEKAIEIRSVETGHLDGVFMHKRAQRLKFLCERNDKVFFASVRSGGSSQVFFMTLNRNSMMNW
# Procedure: The compounds were studied for function as TNIK inhibitors to generate the data of Table 1. […] (specific activity and concentration as required). The reaction is initiated by the addition of the Mg/ATP mix. After incubation for 40 minutes at room temperature, the reaction is stopped by the addition of phosphoric acid to a concentration of 0.5%.
# MAP4K4 (h) = MAP4K4 (h) (Homo sapiens (Human), UniProt O95819); assay: MAP4K4 in vitro kinase assay (radiometric); assay type: biochemical; details: read-out: MAP4K4_IC50
# MAP4K4 (h), sequence (O95819 whole entry): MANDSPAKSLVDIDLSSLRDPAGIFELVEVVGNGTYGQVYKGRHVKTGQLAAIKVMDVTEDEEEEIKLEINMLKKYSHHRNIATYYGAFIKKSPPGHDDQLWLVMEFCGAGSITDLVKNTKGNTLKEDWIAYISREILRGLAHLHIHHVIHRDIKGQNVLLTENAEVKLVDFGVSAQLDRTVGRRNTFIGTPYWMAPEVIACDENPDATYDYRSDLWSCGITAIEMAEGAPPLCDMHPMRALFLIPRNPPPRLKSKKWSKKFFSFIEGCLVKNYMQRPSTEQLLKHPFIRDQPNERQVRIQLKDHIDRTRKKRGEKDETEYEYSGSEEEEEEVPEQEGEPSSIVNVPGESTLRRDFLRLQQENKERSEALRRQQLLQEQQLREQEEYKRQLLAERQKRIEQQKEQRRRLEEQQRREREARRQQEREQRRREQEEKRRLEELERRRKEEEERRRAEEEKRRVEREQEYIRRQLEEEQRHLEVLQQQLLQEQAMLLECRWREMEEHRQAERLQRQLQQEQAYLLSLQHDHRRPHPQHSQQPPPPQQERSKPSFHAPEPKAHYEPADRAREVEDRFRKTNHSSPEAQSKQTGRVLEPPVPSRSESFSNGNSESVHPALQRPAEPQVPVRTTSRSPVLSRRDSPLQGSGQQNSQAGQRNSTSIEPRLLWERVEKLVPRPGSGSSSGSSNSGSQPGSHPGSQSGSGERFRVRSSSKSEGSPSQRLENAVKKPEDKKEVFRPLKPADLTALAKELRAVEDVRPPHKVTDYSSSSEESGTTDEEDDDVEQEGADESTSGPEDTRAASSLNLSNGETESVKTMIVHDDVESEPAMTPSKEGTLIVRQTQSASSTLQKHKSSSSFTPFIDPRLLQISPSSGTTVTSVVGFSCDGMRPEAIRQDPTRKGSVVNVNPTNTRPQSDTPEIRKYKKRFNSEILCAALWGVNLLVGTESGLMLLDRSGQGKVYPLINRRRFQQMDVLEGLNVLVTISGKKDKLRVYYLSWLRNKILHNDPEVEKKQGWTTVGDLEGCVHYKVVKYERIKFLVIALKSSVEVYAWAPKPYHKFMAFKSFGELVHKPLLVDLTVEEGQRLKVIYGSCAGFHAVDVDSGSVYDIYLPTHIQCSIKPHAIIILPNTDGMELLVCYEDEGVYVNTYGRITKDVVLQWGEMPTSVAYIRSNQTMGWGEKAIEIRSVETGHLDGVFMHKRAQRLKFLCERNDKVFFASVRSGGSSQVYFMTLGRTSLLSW
# Procedure: (specific activity and concentration as required). The reaction is initiated by the addition of the Mg/ATP mix. After incubation for 40 minutes at room temperature, the reaction is stopped by the addition of phosphoric acid to a concentration of 0.5%.
# [2] = system: Human hepatic stellate cell LX-2; assay: LX-2 fibrosis assay, collagen production; assay type: cell-based; details: LX-2 cells stimulated with 4 ng/mL TGF-b for 48 hours, Western blot
# Procedure: Human hepatic stellate cell LX-2 were grown in DMEM (Invitrogen, 11960) supplied with 1% MEM Non-Essential Amino Acids (Invitrogen, 11140-050), 2% fetal bovine serum (Hyclone, SV30087.03), Penicillin (100 U/mL)-streptomycin (100 μg/mL) (Millipore, TMS-AB2-C) and 2 mM L-Glutamine (Invitrogen, 25030-001). After the cells grew in 12-well plates for 24 hours, the cell culture medium was changed to the same as above except using 0.4% fetal bovine serum. After 20 hour growth in the reduced serum medium, the cells were treated with indicated doses of compounds for 30 minutes. Subsequently, the cells were stimulated with 4 ng/mL TGF-b (R&D Systems, 240-B-002) for 48 hours. The cells were rinsed twice with DPBS before being harvested with 100 μL RIPA buffer (Sigma, R10278) supplemented with protease inhibitor cocktail (Roche, 04693132001) at 4° C. The total protein in each sample was quantified using BCA Protein Assay Kit (Pierce™, 23227) and equal amount of total protein of each sample was subject to Western blot analysis. Antibodies used were mouse anti-α-Actin (SPM332) ([…]), mouse anti-CTGF (E5) ([…]), and mouse anti-collagen α1 (3G3) (sc-293182), from Santa Cruz Biotechnologies; and mouse anti-GAPDH (6C5) (EMD Millipore, MAB374).
Compound,collagen type 1 alpha 1 (COL1A1) mRNA expression [1],effect of TGF-beta treatment on the COL1A1 mRNA expression ([1]; with TGF-beta treatment),pIC50 (TNIK),pIC50 (MAP4K4 (h)),EC50 [2],"EC50 ([2]; Homo sapiens, LX-2, 48 h)"
"CC(=O)Nc1ccc(C(=O)Nc2sc(Nc3ccccc3)nc2C(N)=O)cc1 [5-(4-acetamidobenzamido)-2-(phenylamino)-1,3-thiazole-4-carboxamide]",decreased,inhibited,,,,
"O=C(Nc1ccncc1F)c1ccc(-c2c(-c3ccc(F)cc3)ncn2C2COCC2F)o1 (stereo not drawn) [Compound A-53, S-(4-(4-fluorophenyl)-1-(4-fluorotetrahydrofuran-3-yl)-1H-imidazol-S-yl)-N-(3-fluoropyridin-4-yl)furan-2-carboxamide]",,,6.72,6.47,1.98 µM,
"O=C(Nc1ccncn1)c1ccc(-c2c(-c3ccc(F)cc3)ncn2C2COCC2F)o1 (centres unmarked) [Compound A-55, 5-(4-(4-fluorophenyl)-1-(4-fluorotetrahydrofuran-3-yl)-1H-imidazol-5-yl)-N-(pyrimidin-4-yl)furan-2-carboxamide]",,,7.04,6.52,,0.437 µM
"Cc1cc(NC(=O)c2ccc(-c3c(-c4ccc(F)cc4)ncn3C3COCC3F)o2)c(F)cn1 (centres unmarked) [Compound A-58, N-(5-fluoro-2-methylpyridin-4-yl)-5-(4-(4-fluorophenyl)-1-(4-fluorotetrahydrofuran-3-yl)-1H-imidazol-5-yl)furan-2-carboxamide]",,,7.12,7.02,,0.669 µM
